Measured values from publication PMC7840908 (Communications Biology, 2021).
Values joined by “and” are separate entries in the source; they are usually repeats but may differ in a detail not shown here. Identical values can stand only once. “Also recorded” adds a separate entry of the source.

Key:
Type in all cases: binding
[1] = target: T1, MERS-CoV macro domain (Middle East respiratory syndrome-related coronavirus, UniProt K9N638)
[2] = target: T1, MERS-CoV macro domain; remark: listed apart in the source
[3] = target: T1, MERS-CoV macro domain; remark: listed apart in the source
[4] = target: T1, MERS-CoV macro domain; remark: listed apart in the source

T1 sequence (K9N638 1110-1276 limits assumed): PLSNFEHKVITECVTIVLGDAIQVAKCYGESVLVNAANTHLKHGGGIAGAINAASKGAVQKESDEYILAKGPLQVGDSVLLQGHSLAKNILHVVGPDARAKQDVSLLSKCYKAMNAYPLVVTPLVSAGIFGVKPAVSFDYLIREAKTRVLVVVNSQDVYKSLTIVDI

SMILES: Nc1ncnc2c1ncn2C1OC(COP(=O)(O)O)C(O)C1O (stereo not shown) [AMP, adenosine monophosphate]
- Melting temperature (Tm) of the MERS-CoV macro domain in complex, CD [1]: 44.0 °C
- NMR CSP, residue 12 [2]: 0.007029 and 0.005468
- NMR CSP, residue 22 [2]: 0.06732 and 0.05323
- NMR CSP, residue 23 [2]: 0.01249 and 0.01858
- NMR CSP, residue 31 [2]: 0.03059 and 0.02592
- NMR CSP, residue 55 [2]: 0.07284 and 0.04017
- NMR CSP, residue 67 [2]: 0.009649 and 0.005916
- NMR CSP, residue 70 [2]: 0.01453 and 0.01754
- NMR CSP, residue 71 [2]: 0.01269 and 0.01423
- NMR CSP, residue 78 [2]: 0.004301 and 0.003017
- NMR CSP, residue 81 [2]: 0.019 and 0.02485
- NMR CSP, residue 85 [2]: 0.01205 and 0.01581
- NMR CSP, residue 90 [2]: 0.01829 and 0.02265
- NMR CSP, residue 99 [2]: 0.0122 and 0.008579
- NMR CSP, residue 110 [2]: 0.01629 and 0.01233
- NMR CSP, residue 130 [2]: 0.0583 and 0.06532
- NMR CSP, residue 138 [2]: 0.02281 and 0.03131
- NMR CSP, residue 153 [2]: 0.05051
- NMR CSP, residue 156 [2]: 0.1498
- NMR CSP, residue 161 [2]: 0.003728 and 0.003225
- NMR chemical shift perturbation behaviour / exchange regime [2]: fast-exchange; also recorded: almost no chemical shift perturbation
- Melting temperature (Tm) of the MERS-CoV macro domain in complex, DSF [3]: 42.5 °C
- n (stoichiometry of binding) [4]: 1.05 ± 0.38
- ΔH [4]: -2.674 ± 0.722 kcal/mol
- −TΔS [4]: -2.419 ± 0.571 kcal/mol

SMILES: Nc1ncnc2c1ncn2[C@@H]1O[C@H](COP(=O)(O)OP(=O)(O)OP(=O)(O)O)[C@@H](O)[C@H]1O [ATP, adenosine triphosphate]
- Melting temperature (Tm) of the MERS-CoV macro domain in complex, CD [1]: 44.4 °C
- NMR CSP, residue 4 [2]: 0.02128 and 0.03079
- NMR CSP, residue 8 [2]: 0.08407 and 0.1389
- NMR CSP, residue 11 [2]: 0.01204 and 0.01003
- NMR CSP, residue 12 [2]: 0.02593 and 0.01302
- NMR CSP, residue 13 [2]: 0.02822 and 0.05324
- NMR CSP, residue 15 [2]: 0.05255 and 0.08443
- NMR CSP, residue 16 [2]: 0.08559 and 0.1065
- NMR CSP, residue 19 [2]: 0.2213 and 0.3991
- NMR CSP, residue 20 [2]: 0.5582 and 0.5971
- NMR CSP, residue 24 [2]: 0.02113 and 0.02272
- NMR CSP, residue 27 [2]: 0.04023 and 0.04654
- NMR CSP, residue 31 [2]: 0.01765 and 0.03281
- NMR CSP, residue 32 [2]: 0.03557 and 0.06867
- NMR CSP, residue 33 [2]: 0.003317 and 0.005514
- NMR CSP, residue 35 [2]: 0.08722 and 0.0586
- NMR CSP, residue 41 [2]: 0.07865 and 0.1421
- NMR CSP, residue 42 [2]: 0.02022 and 0.03875
- NMR CSP, residue 44 [2]: 0.117 and 0.1567
- NMR CSP, residue 46 [2]: 0.2082 and 0.117
- NMR CSP, residue 49 [2]: 0.1963 and 0.3148
- NMR CSP, residue 52 [2]: 0.1171 and 0.2037
- NMR CSP, residue 53 [2]: 0.06017 and 0.08476
- NMR CSP, residue 54 [2]: 0.04378 and 0.08204
- NMR CSP, residue 55 [2]: 0.03609 and 0.04139
- NMR CSP, residue 56 [2]: 0.1144
- NMR CSP, residue 59 [2]: 0.1073 and 0.0995
- NMR CSP, residue 64 [2]: 0.02081 and 0.02918
- NMR CSP, residue 67 [2]: 0.009187 and 0.006075
- NMR CSP, residue 68 [2]: 0.007457 and 0.01342
- NMR CSP, residue 69 [2]: 0.006641 and 0.01241
- NMR CSP, residue 70 [2]: 0.007029 and 0.01308
- NMR CSP, residue 74 [2]: 0.01357 and 0.01451
- NMR CSP, residue 76 [2]: 0.1087 and 0.1584
- NMR CSP, residue 79 [2]: 0.06062 and 0.09243
- NMR CSP, residue 80 [2]: 0.02546 and 0.0359
- NMR CSP, residue 82 [2]: 0.03386 and 0.028
- NMR CSP, residue 88 [2]: 0.01281 and 0.02472
- NMR CSP, residue 91 [2]: 0.02979 and 0.05588
- NMR CSP, residue 92 [2]: 0.05948 and 0.09574
- NMR CSP, residue 98 [2]: 0.08735 and 0.113
- NMR CSP, residue 99 [2]: 0.04875 and 0.06519
- NMR CSP, residue 101 [2]: 0.01539 and 0.022
- NMR CSP, residue 102 [2]: 0.003066
- NMR CSP, residue 104 [2]: 0.03263 and 0.04354
- NMR CSP, residue 105 [2]: 0.0458 and 0.08781
- NMR CSP, residue 108 [2]: 0.03048 and 0.01721
- NMR CSP, residue 109 [2]: 0.0202 and 0.03155
- NMR CSP, residue 111 [2]: 0.0136 and 0.02579
- NMR CSP, residue 113 [2]: 0.02518 and 0.03785
- NMR CSP, residue 117 [2]: 0.02758 and 0.03325
- NMR CSP, residue 119 [2]: 0.05435 and 0.04262
- NMR CSP, residue 122 [2]: 0.04092 and 0.06158
- NMR CSP, residue 125 [2]: 0.4401 and 0.7457
- NMR CSP, residue 126 [2]: 0.163 and 0.2535
- NMR CSP, residue 131 [2]: 0.1039 and 0.07453
- NMR CSP, residue 132 [2]: 0.1244 and 0.1155
- NMR CSP, residue 135 [2]: 0.05654 and 0.08994
- NMR CSP, residue 136 [2]: 0.05575 and 0.07379
- NMR CSP, residue 138 [2]: 0.04766 and 0.08654
- NMR CSP, residue 139 [2]: 0.05001 and 0.03334
- NMR CSP, residue 140 [2]: 0.07046 and 0.09693
- NMR CSP, residue 144 [2]: 0.02987 and 0.05222
- NMR CSP, residue 148 [2]: 0.04492 and 0.05905
- NMR CSP, residue 149 [2]: 0.04139 and 0.04999
- NMR CSP, residue 151 [2]: 0.03194 and 0.04624
- NMR CSP, residue 152 [2]: 0.2468
- NMR CSP, residue 153 [2]: 0.1157 and 0.09952
- NMR CSP, residue 155 [2]: 0.2226 and 0.3418
- NMR CSP, residue 156 [2]: 0.03888
- NMR CSP, residue 158 [2]: 0.03042 and 0.04983
- NMR CSP, residue 159 [2]: 0.008826 and 0.007483
- NMR CSP, residue 161 [2]: 0.02817 and 0.01678
- NMR CSP, residue 164 [2]: 0.03315 and 0.0552
- Melting temperature (Tm) of the MERS-CoV macro domain in complex, DSF [3]: 43.0 °C
- n (stoichiometry of binding) [4]: 1.28 ± 0.23
- ΔH [4]: -0.103 ± 0.0621 kcal/mol
- −TΔS [4]: -4.725 ± 0.115 kcal/mol
